According to patent US7759334B2, “Soluble forms of amoxicillin and treatment of animals” (Pharmaceutical Solutions, Inc., priority 1999, dated 2010):

How the values were obtained:
STREP Suis Type 2 = test: Treatment of streptococcus Suis in nursery pigs; assay type: in vivo; details: 300 pigs, 3 mg/lb for 7 days from 35 days of age
Method: Treatment of streptococcus Suis—a group of 600 pigs was divided into 2 groups of 300. Each group was side by side in a 600 animal nursery room. Group 1 (300) was treated with 3 mg/lb of amoxicillin at 35 days of age for a period of 7 days. Group 2 (300) was treated with a placebo—citric acid/nutrisweet/strawberry flavor at 35 days of age for a period of 7 days. […] Death loss ranged from 3 to 10 percent with poor treatment results.

Hermophilus Pawasuis = test: Treatment for Hermophilus Pawasuis in finishing gilts; assay type: in vivo; details: 500 gilts, 3 mg/# via water
Text: Treatment for Hermophilus Pawasuis in finishing Gilts—wt. 250#. • Marked Reduction in death loss following 5 day coarse of therapy.

[1] = cited from earlier work
Enterococci = details: cited from earlier work

Row | SMILES | Chronic cells @ 50 (STREP Suis Type 2) | Morbidity Number (STREP Suis Type 2) | Mortality Number (STREP Suis Type 2) | Morbidity 8-142 (Hermophilus Pawasuis) | Mortality In 14 days (Hermophilus Pawasuis) | Mortality result in 7 days (Hermophilus Pawasuis) | Morbidity 0-7 (Hermophilus Pawasuis; days 0-7) | Peak plasma concentration relative to ampicillin ([1]; oral administration of the same doses) | Time at which peak plasma concentrations are reached ([1]; oral administration) | Peak concentration in plasma (average) ([1]; oral, 250 mg administered) | IVIIC for ampicillin averages (Enterococci)
1 | CC1(C)S[C@@H]2[C@H](NC(=O)[C@H](N)c3ccc(O)cc3)C(=O)N2[C@H]1C(=O)O [amoxicillin] | 1 | 2 | 0 | 0 | 0 | 0 | 2 | two to two and one-half times greater | 2 h | about 4 μg/ml | –
2 | CC1(C)S[C@@H]2[C@H](NC(=O)[C@H](N)c3ccccc3)C(=O)N2[C@H]1C(=O)O [ampicillin] | – | – | – | – | – | – | – | – | – | – | 1.5 mg/mL
